Test results reported in patent publication US20260042755A1, “GPR6 INVERSE AGONISTS” (MapLight Therapeutics, Inc., priority 2022, published 2026).
Values belong to the compound of their own block, whether it stands above or below them.

Columns and labels:
GPR6 = target: T1, GPR6 (Homo sapiens, UniProt P46095); experiment: GPR6 antagonist functional cAMP assay (LANCE Ultra cAMP TR-FRET, CHO cells stably expressing GPR6); format: cell-based
T1 construct: expressed in transfected cells; host or cells: CHO cells
T1 sequence (P46095 whole entry): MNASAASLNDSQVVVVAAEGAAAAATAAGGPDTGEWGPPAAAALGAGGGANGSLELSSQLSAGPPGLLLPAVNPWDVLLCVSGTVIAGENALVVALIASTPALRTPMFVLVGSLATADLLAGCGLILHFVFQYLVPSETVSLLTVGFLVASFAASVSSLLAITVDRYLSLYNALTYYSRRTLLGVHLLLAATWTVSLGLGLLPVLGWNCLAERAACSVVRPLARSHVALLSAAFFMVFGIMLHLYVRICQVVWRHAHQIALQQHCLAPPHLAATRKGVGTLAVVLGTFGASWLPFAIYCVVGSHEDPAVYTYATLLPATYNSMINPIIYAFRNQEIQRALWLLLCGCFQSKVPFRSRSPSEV
Outline: (§1)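 Suspended cells were plated at 10,000 per well in Krebs-Ringer bicarbonate buffer containing 0.1% BSA and 150 μM Ro 20-1724, then treated with compounds for 45 min at 37 °C. Intracellular cAMP was then quantified by TR-FRET immunoassay.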

GPR3 = target: T2, GPR3 (Homo sapiens, UniProt P46089); experiment: GPR3 antagonist functional cAMP assay (LANCE Ultra cAMP TR-FRET, CHO cells stably expressing GPR3); format: cell-based
T2 construct: expressed in transfected cells; host or cells: CHO cells
T2 sequence (P46089 whole entry, species assumed): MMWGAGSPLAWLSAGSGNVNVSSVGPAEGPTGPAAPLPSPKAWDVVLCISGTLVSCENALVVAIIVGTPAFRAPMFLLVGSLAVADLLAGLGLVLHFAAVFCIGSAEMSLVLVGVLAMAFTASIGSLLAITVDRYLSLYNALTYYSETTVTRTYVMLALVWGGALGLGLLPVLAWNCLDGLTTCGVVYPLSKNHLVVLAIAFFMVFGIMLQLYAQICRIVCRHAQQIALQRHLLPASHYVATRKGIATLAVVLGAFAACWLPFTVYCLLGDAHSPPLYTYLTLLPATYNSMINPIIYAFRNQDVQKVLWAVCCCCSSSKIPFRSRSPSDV
Outline: as §1

[1] = CHO cells stably expressing GPR6, cAMP assay (Example 24)
[2] = CHO cells stably expressing GPR3, cAMP assay (Example 24)
[3] = CHO cells stably expressing GPR6, cAMP assay
[4] = CHO cells stably expressing GPR3, cAMP assay
[5] = procedure as described in Example 24

Structure (SMILES): CC(=O)N1CCc2nc(N3CCC(Oc4ccccc4F)C3)c(-c3cnn(C)c3)nc2C1 (stereo not drawn) [Compound 340, 1-{2-[3-(2-fluorophenoxy)pyrrolidin-1-yl]-3-(1-methyl-1H-pyrazol-4-yl)-5H,6H,7H,8H-pyrido[3,4-b]pyrazin-6-yl}ethan-1-one]
IC50 (GPR6; procedure of Example 24): 1000 to 30000 nM | IC50 (GPR3; procedure of Example 24): ≥ 30000 nM

Structure (SMILES): COc1ccc(CN2CCN(c3nc4c(nc3-c3cnn(C)c3)CN(C(C)=O)CC4)CC2)c(OC)c1 [Compound 322, 1-(2-{4-[(2,4-dimethoxyphenyl)methyl]piperazin-1-yl}-3-(1-methyl-1H-pyrazol-4-yl)-5H,6H,7H,8H-pyrido[3,4-b]pyrazin-6-yl)ethan-1-one]
IC50 (GPR6; procedure of Example 24): ≥ 30000 nM | IC50 (GPR3; procedure of Example 24): 1000 to 30000 nM

Structure (SMILES): COc1ccc(CN2CCN(c3nc4c(nc3-c3cnn(C)c3)CN(C(C)=O)CC4)CC2)c(F)c1 [Compound 316, 1-(2-{4-[(2-fluoro-4-methoxyphenyl)methyl]piperazin-1-yl}-3-(1-methyl-1H-pyrazol-4-yl)-5H,6H,7H,8H-pyrido[3,4-b]pyrazin-6-yl)ethan-1-one]
IC50 (GPR6; procedure of Example 24): 100 to 1000 nM | IC50 (GPR3; procedure of Example 24): 1000 to 30000 nM

Structure (SMILES): CCn1cc(-c2nc3c(nc2N2CCC(Oc4cc(Cl)ccc4Cl)CC2)CCN(C(=O)CO)C3)cn1 [Compound 403, 1-{2-[4-(2,5-dichlorophenoxy)piperidin-1-yl]-3-(1-ethyl-1H-pyrazol-4-yl)-5H,6H,7H,8H-pyrido[3,4-b]pyrazin-6-yl}-2-hydroxyethan-1-one]
IC50 (GPR6; [1]): 100 to 1000 nM | IC50 (GPR3; [2]): 1000 to 30000 nM

Structure (SMILES): Cn1cc(-c2nc3cnc(CC(O)CO)cc3nc2N2CCC(Oc3ccc(F)cc3F)CC2)cn1 (stereo not drawn) [Compound 377, 3-(2-(4-(2,4-difluorophenoxy)piperidin-1-yl)-3-(1-methyl-1H-pyrazol-4-yl)pyrido[3,4-b]pyrazin-7-yl)propane-1,2-diol]
IC50 (GPR6; [1]): 100 to 1000 nM | IC50 (GPR3; [2]): 1000 to 30000 nM

Structure (SMILES): CC(=O)N1CC=C(c2nc3c(nc2N2CCC(Oc4ccc(F)cc4F)CC2)CCN(C(C)=O)C3)CC1 [Compound 69, 1-(3-(1-acetyl-1,2,3,6-tetrahydropyridin-4-yl)-2-(4-(2,4-difluorophenoxy)piperidin-1-yl)-7,8-dihydropyrido[3,4-b]pyrazin-6(5H)-yl)ethan-1-one]
IC50 (GPR6; [1]): 1000 to 30000 nM | IC50 (GPR3; [2]): 1000 to 30000 nM

Structure (SMILES): CNC(=O)C(C)N1CCc2nc(N3CCC(Oc4ccc(F)cc4F)CC3)c(-c3cnn(C4CCCCO4)c3)nc2C1 (stereo not drawn) [Compound 146, 2-{2-[4-(2,4-difluorophenoxy)piperidin-1-yl]-3-[1-(oxan-2-yl)-1H-pyrazol-4-yl]-5H,6H,7H,8H-pyrido[3,4-b]pyrazin-6-yl}-N-methylpropanamide]
IC50 (GPR6; [1]): 1000 to 30000 nM | IC50 (GPR3; [2]): 1000 to 30000 nM

Structure (SMILES): Cn1cc(-c2nc3cnc(N)cc3nc2N2CCN(Cc3ccc(F)cc3F)CC2)cn1 [Compound 226, 2-{4-[(2,4-difluorophenyl)methyl]piperazin-1-yl}-3-(1-methyl-1H-pyrazol-4-yl)pyrido[3,4-b]pyrazin-7-amine]
IC50 (GPR6; [1]): < 100 nM | IC50 (GPR3; [2]): 1000 to 30000 nM

Structure (SMILES): N#CN1CCc2nc(N3CCC(Oc4ccc(F)cc4F)CC3)c(-c3cnn(C4CCCCO4)c3)nc2C1 (stereo not drawn) [Compound 200, 2-[4-(2,4-difluorophenoxy)piperidin-1-yl]-3-[1-(oxan-2-yl)-1H-pyrazol-4-yl]-5H,6H,7H,8H-pyrido[3,4-b]pyrazine-6-carbonitrile]
IC50 (GPR6; [1]): 1000 to 30000 nM | IC50 (GPR3; [2]): 1000 to 30000 nM

Structure (SMILES): CC(=O)N1CCc2nc(N3CCC(Oc4ccc(F)cc4F)CC3)c(-c3cnn(CC4CC4)c3)nc2C1 [Compound 209, 1-{3-[1-(cyclopropylmethyl)-1H-pyrazol-4-yl]-2-[4-(2,4-difluorophenoxy)piperidin-1-yl]-5H,6H,7H,8H-pyrido[3,4-b]pyrazin-6-yl}ethan-1-one]
IC50 (GPR6; [1]): 100 to 1000 nM | IC50 (GPR3; [2]): 1000 to 30000 nM

Structure (SMILES): CC(=O)N1CCc2nc(N3CCC(Oc4ccc(F)cc4F)CC3)c(-c3cn[nH]c3)nc2C1 [Compound 32, 1-(2-(4-(2,4-difluorophenoxy)piperidin-1-yl)-3-(1H-pyrazol-4-yl)-7,8-dihydropyrido[3,4-b]pyrazin-6(5H)-yl)ethan-1-one]
IC50 (GPR6; [5]): 100 to 1000 nM | IC50 (GPR3; [5]): 1000 to 30000 nM

The remaining lines, values ahead:

IC50 (GPR6; procedure of Example 24): 100 to 1000 nM | IC50 (GPR3; procedure of Example 24): 1000 to 30000 nM
Structure (SMILES): CC(C)(O)C(=O)c1cc2nc(N3CCC(Oc4ccc(F)cc4F)CC3)c(-c3cnn(C(F)F)c3)nc2cn1 [Compound 616, 1-{3-[1-(difluoromethyl)-4-pyrazolyl]-2-[4-(2,4-difluorophenoxy)-1-piperidyl]-1,4,6-triaza-7-naphthyl}-2-hydroxy-2-methyl-1-propanone]

IC50 (GPR6; [1]): 100 to 1000 nM | IC50 (GPR3; [2]): 1000 to 30000 nM
Structure (SMILES): CC(=O)N1CCc2nc(N3CCC(Oc4ccc(Cl)cc4Cl)CC3)c(-c3cnn(C)c3)nc2C1 [Compound 429, 1-{2-[4-(2,4-dichlorophenoxy)piperidin-1-yl]-3-(1-methyl-1H-pyrazol-4-yl)-5H,6H,7H,8H-pyrido[3,4-b]pyrazin-6-yl}ethan-1-one]

IC50 (GPR6; [3]): < 100 nM | IC50 (GPR3; [4]): 100 to 1000 nM
Structure (SMILES): CC(C)(O)C(O)c1cc2nc(-c3cnn(C(F)F)c3)c(N3CCN(Cc4ccc(F)cc4F)CC3)nc2cn1 (single isomer, unassigned) [Compound 586]

IC50 (GPR6; [1]): < 100 nM | IC50 (GPR3; [2]): 1000 to 30000 nM
Structure (SMILES): Cc1nccc2nc(N3CCC(Oc4ccc(F)cc4F)CC3)c(-c3cnn(C)c3)nc12 [Compound 487, 4-(2,4-difluorophenoxy)-1-[5-methyl-3-(1-methyl-1H-pyrazol-4-yl)pyrido[3,4-b]pyrazin-2-yl]piperidine]

IC50 (GPR6; [3]): ≥ 30000 nM | IC50 (GPR3; [4]): ≥ 30000 nM
Structure (SMILES): CC(=O)N1CCc2nc(N3CCN(Cc4cccc(=O)[nH]4)CC3)c(-c3cnn(C)c3)nc2C1 [Compound 530, 6-({4-[6-acetyl-3-(1-methyl-4-pyrazolyl)-5,6,7,8-tetrahydro-1,4,6-triaza-2-naphthyl]-1-piperazinyl}methyl)-2(1H)-pyridinone]

IC50 (GPR6; [1]): 1000 to 30000 nM | IC50 (GPR3; [2]): 1000 to 30000 nM
Structure (SMILES): CC(=O)N1CCc2nc(N3CCC(Oc4ccccc4)CC3)c(-c3cnn(C)c3)nc2C1 [Compound 419, 1-[3-(1-methyl-1H-pyrazol-4-yl)-2-(4-phenoxypiperidin-1-yl)-5H,6H,7H,8H-pyrido[3,4-b]pyrazin-6-yl]ethan-1-one]

IC50 (GPR6; procedure of Example 24): 100 to 1000 nM | IC50 (GPR3; procedure of Example 24): 1000 to 30000 nM
Structure (SMILES): CCn1cc(-c2nc3cc(C(C)(O)C(C)(C)O)ncc3nc2N2CCC(Oc3ccc(F)cc3F)CC2)cn1 (single isomer, unassigned) [Compound 740]

IC50 (GPR6; [3]): ≥ 30000 nM | IC50 (GPR3; [4]): ≥ 30000 nM
Structure (SMILES): CC(=O)N1CCc2nc(N3CCN(C(O)c4cocn4)CC3)c(-c3cnn(C)c3)nc2C1 (stereo not drawn) [Compound 523, 1-(2-{4-[hydroxy(1,3-oxazol-4-yl)methyl]-1-piperazinyl}-3-(1-methyl-4-pyrazolyl)-5,6,7,8-tetrahydro-1,4,6-triaza-6-naphthyl)-1-ethanone]

IC50 (GPR6; [3]): < 100 nM | IC50 (GPR3; [4]): 100 to 1000 nM
Structure (SMILES): CC(=O)N1CCc2nc(N3CCC(=Cc4ccc(F)cc4F)CC3)c(-c3cnn(C)c3)nc2C1 [Compound 542, 1-(2-(4-(2,4-difluorobenzylidene)piperidin-1-yl)-3-(1-methyl-1H-pyrazol-4-yl)-7,8-dihydropyrido[3,4-b]pyrazin-6(5H)-yl)ethan-1-one]

IC50 (GPR6; [3]): < 100 nM | IC50 (GPR3; [4]): 1000 to 30000 nM
Structure (SMILES): COC[C@H]1C[C@@H]1c1nc2c(nc1N1CCC(Oc3ccc(F)cc3F)CC1)CCN(C(C)=O)C2 [Compound 546, 1-{3-[(1S,2S)-2-(methoxymethyl)cyclopropyl]-2-[4-(2,4-difluorophenoxy)-1-piperidyl]-5,6,7,8-tetrahydro-1,4,6-triaza-6-naphthyl}-1-ethanone]
